From US11274332B2, “Methods of administering 3,4-diaminopyridine” (SERB SA, priority 2011, dated 2022)
Several values for one entry are separate records, joined by “and”; a condition that tells them apart may be missing. Equal values may be shown once.

Test: Food-effect crossover study, adverse events after single 20 mg amifampridine phosphate in healthy subjects (Examples 10, 11)
Type: in vivo
Experimental: This was a randomized, open-label, 2-treatment, 2-period crossover study with 44 completed subjects to assess the safety, tolerability, and the effect of food on the relative bioavailability of a single dose of amifampridine phosphate.
Safety was evaluated for all subjects who take at least one dose of 3,4-DAP. Safety was evaluated by recording the incidence of adverse events (AEs), physical examination, vital signs, concomitant medications, clinical laboratory assessments, and 12-lead electrocardiogram (ECG).
Analysis for the following safety parameters was carried out on the Safety Population: AEs which included all AEs, AEs by severity, drug-related AEs, deaths, SAEs, AEs leading to study discontinuation, and most frequent AEs, standard clinical laboratory tests, vital signs, ECG measurements, routine physical examinations, and prior and concomitant medications. The cut-off for frequency of AEs reported was determined based on the data. No formal statistical testing was performed for the safety analyses; only descriptive statistics were provided. Appropriate descriptive statistics for the safety data were determined using SAS Version 9.2.
AEs were coded according to the Medical Dictionary for Regulatory Activities (MedDRA; Version 13.0). […] The occurrence of AEs was assessed continuously from the time the subject signed the VID and consent. The reporting period for non-serious AEs was from the first dose to the final study visit. The investigator determined the severity of each event and the relationship of an AE to the IP and recorded it on the source documents and AE CRF. The nature, time of onset, duration, severity, and relationship to study drug was documented, including documentation of investigator assessment and review. All events were assessed to determine if the AE was serious.
The Investigator determined the severity of each event and the event was recorded on the source documents and AE CRF. A coding of “mild” meant there was no limitation of usual activities, “moderate” meant there was some limitation of usual activities, “severe” meant there was an inability to carry out usual activities.
The reporting period for AEs that met the criteria of an SAE began from the time of signing the VID and consent form through follow-up or early termination. […] Clinical Laboratory Assessments

Compound: Nc1ccncc1N.O=P(O)(O)O [amifampridine phosphate, 3,4-diaminopyridine phosphate]
- Abdominal Pain Upper, drug-related AE: % of subjects (Fasted N=45): 4%
- Abdominal Pain Upper, drug-related AE: events (Fasted N=45): 2
- Abdominal Pain Upper, drug-related AE: subjects (Fasted N=45): 2
- Abdominal Pain, drug-related AE: % of subjects (Fasted N=45): 7%
- Abdominal Pain, drug-related AE: events (Fasted N=45): 3
- Abdominal Pain, drug-related AE: subjects (Fasted N=45): 3
- Abdominal Tenderness, drug-related AE: % of subjects (Fasted N=45): 2%
- Abdominal Tenderness, drug-related AE: events (Fasted N=45): 1
- Abdominal Tenderness, drug-related AE: subjects (Fasted N=45): 1
- Acne, drug-related AE: % of subjects (Fasted N=45): 2%
- Acne, drug-related AE: events (Fasted N=45): 1
- Acne, drug-related AE: subjects (Fasted N=45): 1
- All treatment emergent AEs, Mild: % of subjects (Fasted N=45): 53%
- All treatment emergent AEs, Mild: events (Fasted N=45): 60
- All treatment emergent AEs, Mild: subjects (Fasted N=45): 24
- All treatment emergent AEs, Moderate: % of subjects (Fasted N=45): 2%
- All treatment emergent AEs, Moderate: events (Fasted N=45): 1
- All treatment emergent AEs, Moderate: subjects (Fasted N=45): 1
- All treatment emergent AEs, Severe: % of subjects (Fasted N=45): (0%) [0]
- All treatment emergent AEs, Severe: events (Fasted N=45): (0%) [0]
- All treatment emergent AEs, Severe: subjects (Fasted N=45): 0
- All treatment emergent AEs, Total: events (Fasted N=45): 61
- Constipation, drug-related AE: % of subjects (Fasted N=45): (0%) [0]
- Constipation, drug-related AE: events (Fasted N=45): (0%) [0]
- Constipation, drug-related AE: subjects (Fasted N=45): 0
- Diarrhoea, drug-related AE: % of subjects (Fasted N=45): 2%
- Diarrhoea, drug-related AE: events (Fasted N=45): 1
- Diarrhoea, drug-related AE: subjects (Fasted N=45): 1
- Discontinued due to adverse events: % of subjects (Fasted N=45): (0%) [0]
- Discontinued due to adverse events: events (Fasted N=45): (0%) [0]
- Discontinued due to adverse events: subjects (Fasted N=45): 0
- Dizziness, drug-related AE: % of subjects (Fasted N=45): 11%
- Dizziness, drug-related AE: events (Fasted N=45): 5
- Dizziness, drug-related AE: subjects (Fasted N=45): 5
- Dysgeusia, drug-related AE: % of subjects (Fasted N=45): 2%
- Dysgeusia, drug-related AE: events (Fasted N=45): 1
- Dysgeusia, drug-related AE: subjects (Fasted N=45): 1
- Fatigue, drug-related AE: % of subjects (Fasted N=45): 2%
- Fatigue, drug-related AE: events (Fasted N=45): 1
- Fatigue, drug-related AE: subjects (Fasted N=45): 1
- Feeling Hot, drug-related AE: % of subjects (Fasted N=45): 2%
- Feeling Hot, drug-related AE: events (Fasted N=45): 1
- Feeling Hot, drug-related AE: subjects (Fasted N=45): 1
- Flushing, drug-related AE: % of subjects (Fasted N=45): (0%) [0]
- Flushing, drug-related AE: events (Fasted N=45): (0%) [0]
- Flushing, drug-related AE: subjects (Fasted N=45): 0
- Gastrointestinal Disorders Total, drug-related AE: % of subjects (Fasted N=45): 16%
- Gastrointestinal Disorders Total, drug-related AE: events (Fasted N=45): 10
- Gastrointestinal Disorders Total, drug-related AE: subjects (Fasted N=45): 7
- General Disorders and Administration Site Conditions Total, drug-related AE: % of subjects (Fasted N=45): 4%
- General Disorders and Administration Site Conditions Total, drug-related AE: events (Fasted N=45): 2
- General Disorders and Administration Site Conditions Total, drug-related AE: subjects (Fasted N=45): 2
- Headache, drug-related AE: % of subjects (Fasted N=45): 9%
- Headache, drug-related AE: events (Fasted N=45): 4
- Headache, drug-related AE: subjects (Fasted N=45): 4
- Hypoaesthesia Facial, drug-related AE: % of subjects (Fasted N=45): 2%
- Hypoaesthesia Facial, drug-related AE: events (Fasted N=45): 1
- Hypoaesthesia Facial, drug-related AE: subjects (Fasted N=45): 1
- Hypoaesthesia Oral, drug-related AE: % of subjects (Fasted N=45): 7%
- Hypoaesthesia Oral, drug-related AE: events (Fasted N=45): 3
- Hypoaesthesia Oral, drug-related AE: subjects (Fasted N=45): 3
- Hypoaesthesia, drug-related AE: % of subjects (Fasted N=45): 4%
- Hypoaesthesia, drug-related AE: events (Fasted N=45): 2
- Hypoaesthesia, drug-related AE: subjects (Fasted N=45): 2
- Nausea, drug-related AE: % of subjects (Fasted N=45): 7%
- Nausea, drug-related AE: events (Fasted N=45): 3
- Nausea, drug-related AE: subjects (Fasted N=45): 3
- Nervous System Disorders Total, drug-related AE: % of subjects (Fasted N=45): 47%
- Nervous System Disorders Total, drug-related AE: events (Fasted N=45): 43
- Nervous System Disorders Total, drug-related AE: subjects (Fasted N=45): 21
- Paraesthesia Oral, drug-related AE: % of subjects (Fasted N=45): 29%
- Paraesthesia Oral, drug-related AE: events (Fasted N=45): 15
- Paraesthesia Oral, drug-related AE: subjects (Fasted N=45): 13
- Paraesthesia, drug-related AE: % of subjects (Fasted N=45): 22%
- Paraesthesia, drug-related AE: events (Fasted N=45): 12
- Paraesthesia, drug-related AE: subjects (Fasted N=45): 10
- Possibly or probably related AEs, Mild: % of subjects (Fasted N=45): 47%
- Possibly or probably related AEs, Mild: events (Fasted N=45): 55
- Possibly or probably related AEs, Mild: subjects (Fasted N=45): 21
- Possibly or probably related AEs, Moderate: % of subjects (Fasted N=45): 2%
- Possibly or probably related AEs, Moderate: events (Fasted N=45): 1
- Possibly or probably related AEs, Moderate: subjects (Fasted N=45): 1
- Possibly or probably related AEs, Severe: % of subjects (Fasted N=45): (0%) [0]
- Possibly or probably related AEs, Severe: events (Fasted N=45): (0%) [0]
- Possibly or probably related AEs, Severe: subjects (Fasted N=45): 0
- Possibly or probably related AEs, Total: % of subjects (Fasted N=45): 47%
- Possibly or probably related AEs, Total: events (Fasted N=45): 56
- Possibly or probably related AEs, Total: subjects (Fasted N=45): 21
- Serious adverse events: % of subjects (Fasted N=45): (0%) [0]
- Serious adverse events: events (Fasted N=45): (0%) [0]
- Serious adverse events: subjects (Fasted N=45): 0
- Skin and Subcutaneous Tissue Disorders Total, drug-related AE: % of subjects (Fasted N=45): 2%
- Skin and Subcutaneous Tissue Disorders Total, drug-related AE: events (Fasted N=45): 1
- Skin and Subcutaneous Tissue Disorders Total, drug-related AE: subjects (Fasted N=45): 1
- Vascular Disorders Total, drug-related AE: % of subjects (Fasted N=45): (0%) [0]
- Vascular Disorders Total, drug-related AE: events (Fasted N=45): (0%) [0]
- Vascular Disorders Total, drug-related AE: subjects (Fasted N=45): 0
- All treatment emergent AEs, Total: subjects (Fasted N=45, phosphate): 23 and 24
- Abdominal Pain Upper, drug-related AE: % of subjects (Fed N=46): (0%) [0]
- Abdominal Pain Upper, drug-related AE: events (Fed N=46): (0%) [0]
- Abdominal Pain Upper, drug-related AE: subjects (Fed N=46): 0
- Abdominal Pain, drug-related AE: % of subjects (Fed N=46): (0%) [0]
- Abdominal Pain, drug-related AE: events (Fed N=46): (0%) [0]
- Abdominal Pain, drug-related AE: subjects (Fed N=46): 0
- Abdominal Tenderness, drug-related AE: % of subjects (Fed N=46): (0%) [0]
- Abdominal Tenderness, drug-related AE: events (Fed N=46): (0%) [0]
- Abdominal Tenderness, drug-related AE: subjects (Fed N=46): 0
- Acne, drug-related AE: % of subjects (Fed N=46): (0%) [0]
- Acne, drug-related AE: events (Fed N=46): (0%) [0]
- Acne, drug-related AE: subjects (Fed N=46): 0
- All treatment emergent AEs, Mild: % of subjects (Fed N=46): 48%
- All treatment emergent AEs, Mild: events (Fed N=46): 38
- All treatment emergent AEs, Mild: subjects (Fed N=46): 22
- All treatment emergent AEs, Moderate: % of subjects (Fed N=46): 2%
- All treatment emergent AEs, Moderate: events (Fed N=46): 1
- All treatment emergent AEs, Moderate: subjects (Fed N=46): 1
- All treatment emergent AEs, Severe: % of subjects (Fed N=46): 2%
- All treatment emergent AEs, Severe: events (Fed N=46): 1
- All treatment emergent AEs, Severe: subjects (Fed N=46): 1
- All treatment emergent AEs, Total: events (Fed N=46): 40
- Constipation, drug-related AE: % of subjects (Fed N=46): 2%
- Constipation, drug-related AE: events (Fed N=46): 1
- Constipation, drug-related AE: subjects (Fed N=46): 1
